Experimental findings from patent US8202885B2, “Bridged six-membered ring compounds” (Actelion Pharmaceuticals Ltd., priority 2007, dated 2012) are described below.

The subject of the assay is human Cav3.1 Cav3.2 or Cav3.3 channel. The assay is described as follows: In vitro assay T channel (FLIPR calcium fluorescence). It counts as cell-based. The note with it: HEK293 cells expressing human Cav3.1, Cav3.2 or Cav3.3; 10 mM Ca2+-induced fluo-4 fluorescence; determined up to 10 μM; read-out: T channel antagonistic activity IC50. Here is the method: The T channel antagonistic activity (IC50 values) of the compounds of formula (I) is determined in accordance with the following experimental method and data are shown in Table 1.
Human embryonic kidney (HEK293) cells expressing the human Cav3.1 Cav3.2 or Cav3.3 channel, respectively, are grown in culture medium (DMEM containing 10% heat-inactivated fetal calf serum (FCS), 100 U/ml penicillin, 100 μg/ml streptomycin and 1 mg/ml G418). The cells are seeded at 20.000 cells/well into 384-well black clear bottom sterile plates (poly-L-lysine-coated, Becton Dickinson). The seeded plates are incubated overnight at 37° C. in 5% CO2. The Ca^2+ solution is prepared as 100 mM stock solution in 100 mM tetraethylammoniumchloride (TEA-chloride), 50 mM HEPES, 2.5 mM CaCl2, 5 mM KCl, 1 mM MgCl2, adjusted to pH 7.2 with TEA-hydroxide, for use in the assay at a final concentration of 10 mM. Antagonists are prepared as 10 mM stock solutions in DMSO, then diluted in 384 w plates first in DMSO, then in 100 mM TEA-chloride, 50 mM HEPES, 2.5 mM CaCl2, 5 mM KCl, 1 mM MgCl2, adjusted to pH 7.2 with TEA-hydroxide, to obtain 9× stocks. On the day of the assay, 25 μl of staining buffer (HBSS containing 20 mM HEPES, 0.375 g/l NaHCO3 and 3 μM of the fluorescent calcium indicator fluo-4 AM (1 mM stock solution in DMSO, containing 10% pluronic) is added to each well of the seeded plate. The 384-well cell-plates are incubated for 60 min at 37° C. in 5% CO2 followed by washing with 2×50 μl per well using HBSS containing 0.1% BSA, 20 mM HEPES, 0.375 g/l NaHCO3, leaving 50 […] of this buffer for equilibration at room temperature (30-60 min). Within the Fluorescent Imaging Plate Reader (FLIPR, Molecular Devices), antagonists are added to the plate in a volume of 6.25 μl/well, incubated for 3 min, and finally 6.25 […] of Ca^2+ solution is added. Fluorescence is measured for each well at 2 second intervals for 8 minutes, and the area under the curve of each fluorescence peak is compared to the area of the fluorescence peak induced by 10 mM Ca^2+ with vehicle in place of antagonist. For each antagonist, the IC50 value (the concentration (in nM) of compound needed to inhibit 50% of the Ca^2+-induced fluorescence response) up to 10 μM is determined.
For the compound `COc1cc2nc(CCCN(C)CC[C@]3(O)C[C@H]4CC[C@@H]3C=C4c3ccccc3)[nH]c2cc1OC` (relative stereo) [Example 28, rac-(1R*,2R*,4R*)-2-(2-{[3-(5,6-Dimethoxy-1H-benzoimidazol-2-yl)-propyl]-methyl-amino}-ethyl)-5-phenyl-bicyclo[2.2.2]oct-5-en-2-ol], the IC50 – broadly, the concentration needed to halve the response being measured – was 2.53 µM. With `CCOc1ccc(CCCN(C)CC[C@]2(O)C[C@H]3CC[C@@H]2C=C3c2ccccc2)cc1OCC` (relative stereo) [Example 40, rac-(1R*,2R*,4R*)-2-(2-{[3-(3,4-Diethoxy-phenyl)-propyl]-methyl-amino}-ethyl)-5-phenyl-bicyclo[2.2.2]oct-5-en-2-ol], the IC50 was found to be 3.33 µM. On to `COCC(C)(COC)C(=O)N(C)CCCN(C)CC[C@@]1(OC(=O)C(C)C)C[C@H]2CC[C@@H]1C(c1ccccc1)=C2C` (relative stereo) [Example 53C, rac-Isobutyric acid (1R*,2S*,4R*)-2-[2-({3-[(3-methoxy-2-methoxymethyl-2-methyl-propionyl)-methyl-amino]-propyl}-methyl-amino)-ethyl]-5-methyl-6-phenyl-bicyclo[2.2.2]oct-5-en-2-yl ester], for which the IC50 came out at 0.906 µM. As for `CN(CCCc1nc2ccccc2[nH]1)CC[C@]1(O)C[C@H]2CC[C@@H]1C[C@]21OCc2ccccc21` (relative stereo) [Example 80, rac-(1R*,2S*,4R*,5R*)-5-(2-{[3-(1H-Benzoimidazol-2-yl)-propyl]-methyl-amino}-ethyl)-3′H-spiro(bicyclo[2.2.2]octane-2,1′-isobenzofuran)-5-ol], the 50% inhibitory concentration (IC50) came out at 3.71 µM.

On to `COC(C)(C)C(=O)NCCCN(C)CC[C@]1(O)C[C@H]2CC[C@@H]1C=C2c1ccccc1` (relative stereo) [Example 44, rac-N-(3-{[2-((1R*,2R*,4R*)-2-Hydroxy-5-phenyl-bicyclo[2.2.2]oct-5-en-2-yl)-ethyl]-methyl-amino}-propyl)-2-methoxy-2-methyl-propionamide], for which the IC50 is over 10 µM. Consider `CN(CCCc1cnc2occc2c1)CC[C@]1(O)C[C@H]2CC[C@@H]1C=C2c1ccccc1` (relative stereo) [Example 41, rac-(1R*,2R*,4R*)-2-{2-[(3-Furo[2,3-b]pyridin-5-yl-propyl)-methyl-amino]-ethyl}-5-phenyl-bicyclo[2.2.2]oct-5-en-2-ol], for which the 50% inhibitory concentration (IC50) is over 10 µM. With `COc1ccccc1C1=C[C@H]2CC[C@@H]1C[C@]2(CCN(C)CCCc1nc2ccccc2[nH]1)OC(=O)C(C)C` (relative stereo) [Example 23A, rac-Isobutyric acid (1R*,2R*,4R*)-2-(2-{[3-(1H-benzoimidazol-2-yl)-propyl]-methyl-amino}-ethyl)-5-(2-methoxy-phenyl)-bicyclo[2.2.2]oct-5-en-2-yl ester], the IC50 stood at 4.01 µM. With `CC(C)C(=O)OC1(CCN(C)CCCc2nc3ccccc3[nH]2)CC2CCC1C=C2c1ccccc1` [Example 11A, Isobutyric acid (1R,2R,4R)-2-(2-{[3-(1H-benzoimidazol-2-yl)-propyl]-methyl-amino}-ethyl)-5-phenyl-bicyclo[2.2.2]oct-5-en-2-yl ester or isobutyric acid (1S,2S,4S)-2-(2-{[3-(1H-benzoimidazol-2-yl)-propyl]-methyl-amino}-ethyl)-5-phenyl-bicyclo[2.2.2]oct-5-en-2-yl ester], the IC50 stood at 4.65 µM. For `COc1cccc2[nH]c(CCCN(C)CC[C@]3(OC(=O)C(C)(C)OC)C[C@H]4CC[C@@H]3C=C4c3ccccc3)nc12` (relative stereo) [Example 26F, rac-2-Methoxy-2-methyl-propionic acid (1R*,2R*,4R*)-2-(2-{[3-(4-methoxy-1H-benzoimidazol-2-yl)-propyl]-methyl-amino}-ethyl)-5-phenyl-bicyclo[2.2.2]oct-5-en-2-yl ester], the IC50 came to 0.951 µM. To `CCOc1cccc2nc(CCCN(C)CC[C@]3(O)C[C@H]4CC[C@@H]3C=C4c3ccccc3)[nH]c12` (relative stereo) [Example 31, rac-(1R*,2R*,4R*)-2-(2-{[3-(7-Ethoxy-1H-benzoimidazol-2-yl)-propyl]-methyl-amino}-ethyl)-5-phenyl-bicyclo[2.2.2]oct-5-en-2-ol] belongs 2.58 µM.

Turning to `CC(C)C(=O)O[C@@]1(CCN(C)CCCc2cncc3ccccc23)C[C@H]2CC[C@@H]1C=C2c1ccccc1` (relative stereo) [Example 48A, rac-Isobutyric acid (1R*,2R*,4R*)-2-{2-[(3-isoquinolin-4-yl-propyl)-methyl-amino]-ethyl}-5-phenyl-bicyclo[2.2.2]oct-5-en-2-yl ester], the IC50 was over 10 µM.

In the case of `CN(CCCc1nc2ccccc2[nH]1)CC[C@]1(O)C[C@H]2CC[C@@H]1C=C2c1nccs1` (relative stereo) [Example 24, rac-(1R*,2R*,4R*)-2-(2-{[3-(1H-Benzoimidazol-2-yl)-propyl]-methyl-amino}-ethyl)-5-thiazol-2-yl-bicyclo[2.2.2]oct-5-en-2-ol], the IC50 is over 10 µM. Consider `CN(CCCc1cccnc1)CC[C@]1(O)C[C@H]2CC[C@@H]1C=C2c1ccccc1` (relative stereo) [Example 46, rac-(1R*,2R*,4R*)-2-{2-[Methyl-(3-pyridin-3-yl-propyl)-amino]-ethyl}-5-phenyl-bicyclo[2.2.2]oct-5-en-2-ol], for which the IC50 was over 10 µM.

Regarding `COCC(C)(COC)C(=O)NCCCN(C)CC[C@]1(OC(=O)C(C)C)C[C@H]2CC[C@@H]1C=C2c1ccccc1` (relative stereo) [Example 43A, rac-Isobutyric acid (1R*,2R*,4R*)-2-(2-{[3-(3-methoxy-2-methoxymethyl-2-methyl-propionylamino)-propyl]-methyl-amino}-ethyl)-5-phenyl-bicyclo[2.2.2]oct-5-en-2-yl ester], the half-maximal inhibitory concentration (IC50) is 2.71 µM. The same measure for `CC(C)C(=O)O[C@@]1(CCN(C)CCCc2ccnc3ccccc23)C[C@H]2CC[C@@H]1C=C2c1ccccc1` (relative stereo) [Example 50A, rac-Isobutyric acid (1R*,2R*,4R*)-2-{2-[methyl-(3-quinolin-4-yl-propyl)-amino]-ethyl}-5-phenyl-bicyclo[2.2.2]oct-5-en-2-yl ester]: over 10 µM; for `CCCC1=C(C)[C@H]2CC[C@@H]1C[C@]2(CCN(C)CCCN(C)C(=O)C(C)(COC)COC)OC(=O)C(C)C` (relative stereo) [Example 52A, rac-Isobutyric acid (1R*,2R*,4R*)-2-[2-({3-[(3-methoxy-2-methoxymethyl-2-methyl-propionyl)-methyl-amino]-propyl}-methyl-amino)-ethyl]-6-methyl-5-propyl-bicyclo[2.2.2]oct-5-en-2-yl ester]: 4.21 µM; for `COc1cccc2[nH]c(CCCN(C)CC[C@]3(OC(=O)CC(F)(F)F)C[C@H]4CCC[C@@H]3C=C4c3ccccc3)nc12` (relative stereo) [Example 36B, rac-3,3,3-Trifluoro-propionic acid (1R*,5R*,6R*)-6-(2-{[3-(4-methoxy-1H-benzoimidazol-2-yl)-propyl]-methyl-amino}-ethyl)-8-phenyl-bicyclo[3.2.2]non-8-en-6-yl ester]: 2.45 µM.

For the compound `COc1cccc2nc(CCN(C)CC[C@]3(OC(=O)C(C)C)C[C@H]4CC[C@@H]3C=C4c3ccccc3)[nH]c12` (relative stereo) [Example 32A, rac-Isobutyric acid (1R*,2R*,4R*)-2-(2-{[2-(7-methoxy-1H-benzoimidazol-2-yl)-ethyl]-methyl-amino}-ethyl)-5-phenyl-bicyclo[2.2.2]oct-5-en-2-yl ester], the half-inhibitory concentration (IC50) is 3.39 µM. To `Cc1cc2cc(CCCN(C)CC[C@]3(O)C[C@H]4CC[C@@H]3C=C4c3ccccc3)cnc2o1` (relative stereo) [Example 42, rac-(1R*,2R*,4R*)-2-(2-{Methyl-[3-(2-methyl-furo[2,3-b]pyridin-5-yl)-propyl]-amino}-ethyl)-5-phenyl-bicyclo[2.2.2]oct-5-en-2-ol] belongs over 10 µM; to `COCC(C)(COC)C(=O)N(C)CCCN(C)CC[C@]1(O)C[C@H]2CC[C@@H]1C=C2c1ccccc1` (relative stereo) [Example 51, rac-N-(3-{[2-((1R*,2R*,4R*)-2-Hydroxy-5-phenyl-bicyclo[2.2.2]oct-5-en-2-yl)-ethyl]-methyl-amino}-propyl)-3-methoxy-2-methoxymethyl-2,N-dimethyl-propionamide], over 10 µM.
